The subject of one assay is bacteria. The experiment in a line: Effect of biocide on bacteria level (PCA medium plate count). It is filed as cell-based. To be noted: biocide concentration 50 ppm, 2 hours after contact. The text has this: (§1) SDA medium is synthetic defined agar, and PCA medium is plate count agar. Dow Antimicrobial™ 7287 is a composition containing 20 percent 2,2-dibromo-3-nitrilopropionamide (DBNPA), sold by The Dow Chemical Company.

A further assay deals with yeast. Description: Effect of biocide on yeast level (SDA medium plate count). It is filed as cell-based. The following applies: biocide concentration 50 ppm, 2 hours after contact.
Description: as §1

As for `O=CCCCC=O` [UCARCIDE ™ 250, glutaraldehyde], the Bacteria level in the assay with bacteria is 5.0 × 10^5 cfu/ml. Besides, in the assay on yeast, the Yeast level is 5.0 × 10^4 cfu/ml.
For Diethyl Carbamate, the Bacteria level with bacteria is given as 2.6 × 10^7 cfu/ml. For the same molecule, the Yeast level with yeast is <1.0 × 10^4 cfu/ml.
